Structures are written as SMILES. pEC50, pIC50: −log10 of the molar value. Numbered stars: 1 amine (or outer) side, 2 acyl side, 3 side chain; on linkers, the order of the positions; unused ones are H or OH. Peptide text beside a SMILES is read from it. * marks the point of attachment. C20 diacid = O=C(O)CCCCCCCCCCCCCCCCCCC(=O)*; C18 diacid = O=C(O)CCCCCCCCCCCCCCCCC(=O)*; γGlu = O=C(O)[C@H](CCC(=O)[*:2])N[*:1]

The target of series [1] is T1, Amylin receptor AMY3; CALCR/RAMP3 (Homo sapiens, UniProt O60896+P30988).
T1 sequence (P30988 whole entry): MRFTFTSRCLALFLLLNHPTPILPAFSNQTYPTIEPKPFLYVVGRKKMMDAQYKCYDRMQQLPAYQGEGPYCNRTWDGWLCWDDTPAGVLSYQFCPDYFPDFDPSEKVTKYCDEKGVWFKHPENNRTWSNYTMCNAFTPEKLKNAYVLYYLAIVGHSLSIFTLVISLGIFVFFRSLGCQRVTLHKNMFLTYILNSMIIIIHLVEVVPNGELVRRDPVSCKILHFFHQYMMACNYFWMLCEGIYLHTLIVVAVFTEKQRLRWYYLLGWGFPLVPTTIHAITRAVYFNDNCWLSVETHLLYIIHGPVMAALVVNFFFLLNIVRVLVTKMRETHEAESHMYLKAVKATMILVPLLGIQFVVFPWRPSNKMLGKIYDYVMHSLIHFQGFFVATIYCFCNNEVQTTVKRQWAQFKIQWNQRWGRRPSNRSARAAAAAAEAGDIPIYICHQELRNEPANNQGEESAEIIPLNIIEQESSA
T1 sequence (O60896 whole entry): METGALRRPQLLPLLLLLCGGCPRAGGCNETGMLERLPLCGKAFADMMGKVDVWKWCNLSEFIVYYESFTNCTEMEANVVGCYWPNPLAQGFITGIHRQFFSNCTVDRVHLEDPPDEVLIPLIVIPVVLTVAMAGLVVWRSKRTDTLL
As to the kind of experiment: Agonist activity at human amylin receptor expressed in BHK570 cells co-expressing RAMP3 assessed as increase in intracellular cAMP concentration incubated for 3 hrs in absence of albumin by CRE luciferase reporter gene assay. It is filed as functional, cell-based. Background: In a reporter assay the amount or activity of a reporter protein is the signal.

The target in series [2] is T2, Calcitonin receptor (Homo sapiens, UniProt P30988).
T2 sequence (P30988 whole entry): T1 sequence (P30988 whole entry)
As to the kind of experiment: Agonist activity at human calcitonin receptor expressed in BHK570 cells assessed as increase in intracellular cAMP concentration incubated for 3 hrs in absence of albumin by CRE luciferase reporter gene assay. Format: functional, cell-based.

For series [3], the target named is T1, Amylin receptor AMY3; CALCR/RAMP3. As to the kind of experiment: Agonist activity at human amylin receptor expressed in BHK570 cells co-expressing RAMP3 assessed as increase in intracellular cAMP concentration incubated for 3 hrs in presence of 10% FBS by CRE luciferase reporter gene assay. Format: functional, cell-based.
Series [4] addresses T2, Calcitonin receptor. The series can be described thus: Agonist activity at human calcitonin receptor expressed in BHK570 cells assessed as increase in intracellular cAMP concentration incubated for 3 hrs in presence of 10% FBS by CRE luciferase reporter gene assay. Format: functional, cell-based.
Series [5] in a line: Solubility in 100 mM glycylglycine buffer at pH 3.0 incubated for 18 hrs by UPLC analysis. It is filed as physicochemical.
Series [6] in a line: Solubility in 100 mM glycylglycine buffer at pH 4.0 incubated for 18 hrs by UPLC analysis. It is filed as physicochemical.
The nature of series [7]: Solubility in 100 mM bistrispropane buffer at pH 6.0 incubated for 18 hrs by UPLC analysis. It is filed as physicochemical.
Series [8] is described as follows: Solubility in 100 mM glycylglycine buffer at pH 5.0 incubated for 18 hrs by UPLC analysis. Format: physicochemical.
The nature of series [9]: Solubility in 100 mM bistrispropane buffer at pH 6.5 incubated for 18 hrs by UPLC analysis. Format: physicochemical.
The nature of series [10]: Solubility in 100 mM bistrispropane buffer at pH 7.0 incubated for 18 hrs by UPLC analysis. Format: physicochemical.
The nature of series [11]: Solubility in 100 mM bistrispropane buffer at pH 7.5 incubated for 18 hrs by UPLC analysis. Format: physicochemical.
The nature of series [12]: Solubility in 100 mM bistrispropane buffer at pH 8.0 incubated for 18 hrs by UPLC analysis. It is filed as physicochemical.
Series [13] deals with T1, Amylin receptor AMY3; CALCR/RAMP3. As to the kind of experiment: Displacement of [125I]-labeled rat amylin from human amylin receptor expressed in BHK tkts13 whole cells co-expressing RAMP3 incubated for 60 mins by scintillation proximity assay. Format: cell-based.

The pEC50 is the EC50 on a negative log10 scale, so that one unit is a factor of ten. For orientation: solubility means the concentration that dissolves in the medium under given conditions. Usually pIC50 stands for −log10 of the IC50, conventionally taken in molar units. As to `CC(C)C[C@H](NC(=O)CNC(=O)[C@H](CO)NC(=O)[C@H](C)NC(=O)CC[C@H](NC(=O)CCCCCCCCCCCCCCCCCCC(=O)O)C(=O)O)C(=O)N[C@@H](CO)C(=O)N[C@H](C(=O)N[C@@H](C)C(=O)N[C@@H](C)C(=O)N[C@@H](CC(C)C)C(=O)NCC(=O)N[C@@H](CCCNC(=N)N)C(=O)N[C@@H](CC(C)C)C(=O)N[C@@H](CO)C(=O)N[C@@H](C)C(=O)N[C@@H](CCC(=O)O)C(=O)N[C@@H](CC(C)C)C(=O)N[C@@H](Cc1cnc[nH]1)C(=O)N[C@@H](CCC(=O)O)C(=O)N[C@@H](CC(C)C)C(=O)N[C@@H](C)C(=O)N[C@H](C(=O)N[C@@H](Cc1ccc(O)cc1)C(=O)N1CCC[C@H]1C(=O)N[C@@H](CCCNC(=N)N)C(=O)N[C@H](C(=O)N[C@@H](CCC(=O)O)C(=O)N[C@H](C(=O)NCC(=O)N[C@@H](CO)C(=O)NCC(=O)N[C@@H](CO)C(=O)N1CCC[C@H]1C(N)=O)[C@@H](C)O)[C@@H](C)O)[C@@H](C)O)[C@@H](C)O` ({C20 diacid-γGlu}-ASGLSTAALGRLSAELHELATYPRTETGSGSP-NH2), the pEC50 is 10.42 in series [1], 10.38 on Calcitonin receptor [2], 10.15 in series [3] and 10.35 on Calcitonin receptor [4]. Also, the solubility at 18 h in [5], in series [6], in series [7], in [8], in series [9] and in series [10] was no less than 200 µM in each case. For the same compound, the solubility at 18 h in series [11] and in [12] was no less than 200 µM in each case. Also, the pIC50 in series [13] was 9.95.
Turning to `CC(C)C[C@H](NC(=O)[C@H](CCC(=O)O)NC(=O)[C@H](Cc1cnc[nH]1)NC(=O)[C@H](CC(C)C)NC(=O)[C@H](CCC(=O)O)NC(=O)[C@H](C)NC(=O)[C@H](CO)NC(=O)[C@H](CC(C)C)NC(=O)[C@H](CCCNC(=N)N)NC(=O)CNC(=O)[C@H](CC(C)C)NC(=O)[C@@H](NC(=O)[C@H](C)NC(=O)[C@@H](NC(=O)[C@@H](NC(=O)[C@H](CC(C)C)NC(=O)[C@H](CCC(=O)O)NC(=O)[C@H](CO)NC(=O)[C@H](C)NC(=O)CC[C@H](NC(=O)CCCCCCCCCCCCCCCCC(=O)O)C(=O)O)[C@@H](C)O)[C@@H](C)O)C(C)C)C(=O)N[C@@H](C)C(=O)N[C@H](C(=O)N[C@@H](CC(C)C)C(=O)N1CCC[C@H]1C(=O)N[C@@H](CCCNC(=N)N)C(=O)N[C@H](C(=O)N[C@@H](CCC(=O)O)C(=O)N[C@H](C(=O)NCC(=O)N[C@H](C(=O)NCC(=O)N[C@H](C(=O)N1CCC[C@H]1C(N)=O)[C@@H](C)O)[C@@H](C)O)[C@@H](C)O)[C@@H](C)O)[C@@H](C)O` ({C18 diacid-γGlu}-ASELTTAVLGRLSAELHELATLPRTETGTGTP-NH2), the pEC50 in [1] was 10.19; at Calcitonin receptor [2] it was 10.49; in [3] it was 10.28; on Calcitonin receptor [4], 10.89. Moreover, the solubility at 18 h in [5], in series [6], in series [7], in series [8], in [9] and in series [10] was no less than 200 µM each time. The solubility at 18 h in [11] and in series [12] was no less than 200 µM in each case. Moreover, in [13], the pIC50 is 8.67.

Values taken from ChEMBL document CHEMBL4420076, “Amylin and calcitonin receptor agonist” (2017).
